Where a name gives a salt, the structure may show the parent alone.

The values that follow come from patent publication US6297247A, “Sulfonamide inhibitors of matrix metalloproteinases” (priority 2000, dated 2001).

Experiment [1] addresses T1, SCD (stromelysin-1 catalytic domain) (Homo sapiens, UniProt P08254).
T1 construct: SCD (stromelysin-1 catalytic domain)
In words: Inhibition of stromelysin-1 catalytic domain (SCD), thiopeptolide substrate. The class given is biochemical. To be noted: thiopeptolide substrate Ac-Pro-Leu-Gly-thioester-Leu-Leu-Gly-OEt. As to the method: IC50 values were determined using a thiopeptolide substrate, Ac-Pro-Leu-Gly-thioester-Leu-Leu-Gly-OEt (Ye Q.-Z., Johnson L. L., Hupe D. J. and Baragi V., "Purification and Characterization of the Human Stromelysin Catalytic Domain Expressed in Escherichia coli", Biochemistry,1992;31:11231-11235).

The target in experiment [2] is GCD (recombinant gelatinase A catalytic domain). As to the kind of experiment: Inhibition of recombinant gelatinase A catalytic domain (GCD), thiopeptolide substrate. The experiment is classed as biochemical. To be noted: thiopeptolide substrate Ac-Pro-Leu-Gly-thioester-Leu-Leu-Gly-OEt.
The subject of the next experiment is bovine nasal cartilage. To be noted: cited from earlier work.
The subject of a further experiment is pig articular cartilage. The note with it: cited from earlier work.
Experiment [3] deals with experimental allergic encephalomyelitis (EAE). The note with it: in vivo; cited from earlier work.

T1 sequence (P08254 100-272 limits assumed): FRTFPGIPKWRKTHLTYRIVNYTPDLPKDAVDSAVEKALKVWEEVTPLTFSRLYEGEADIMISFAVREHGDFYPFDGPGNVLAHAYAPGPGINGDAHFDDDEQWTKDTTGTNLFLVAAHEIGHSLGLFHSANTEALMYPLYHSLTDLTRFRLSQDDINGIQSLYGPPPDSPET

What is called IC50 is the concentration at which inhibition is half-maximal. `O=C(O)[C@H](Cc1ccccc1)NS(=O)(=O)c1ccc(N2CCN(c3ccccc3)CC2)cc1` [Example 15, (S)-3-Phenyl-2-[4-(4-phenyl-piperazin-1-yl)-benzenesulfonylamino]-propionicacid]: the results for the IC50 in experiment [1] and in experiment [2] were 0.021 µM and 0.088 µM, respectively.
For `O=C(O)[C@H](Cc1ccccc1)NS(=O)(=O)c1ccc(N2CCC(Cc3ccccc3)CC2)cc1` [Example 12, (S)-2-[4-(4-Benzyl-piperidin-1-yl)-benzenesulfonylamino]-3-phenyl-propionicacid], in that order: 0.6 µM and 3.2 µM.
As to `O=C(O)CNS(=O)(=O)c1ccc(N2CCC(c3ccccc3)CC2)cc1` [Example 1, [4-(4-Phenyl-piperidin-1-yl)-benzenesulfonylamino]-acetic acid], the concentration for half-maximal inhibition (IC50) in experiment [2] stood at 0.21 µM.
As for `O=C(O)[C@H](Cc1ccc(OCc2ccccc2)cc1)NS(=O)(=O)c1ccc(N2CCC(c3ccccc3)CC2)cc1` [Example 13, (S)-3-(4-Benzyloxy-phenyl)-2-[4-(4-phenyl-piperidin-1-yl)-benzenesulfonylamino]-propionic acid], the IC50 was 0.19 µM in experiment [1] and 5.3 µM in experiment [2].
Turning to `O=C(O)[C@H](Cc1c[nH]c2ccccc12)NS(=O)(=O)c1ccc(N2CCC(c3ccccc3)CC2)cc1` [Example 8, (S)-3-(1H-Indol-3-yl)-2-[4-(4-phenyl-piperidin-1-yl)-benzenesulfonylamino]-propionic acid], the concentration for half-maximal inhibition (IC50) in experiment [1] is 0.01 µM; in experiment [2] it was 0.32 µM.
As for `O=C(O)C(CCCc1ccccc1)NS(=O)(=O)c1ccc(N2CCC(c3ccccc3)CC2)cc1` (racemic) [Example 9, (±)-5-Phenyl-2-[4-(4-phenyl-piperidin-1-yl)-benzenesulfonylamino]-pentanoic acid], the IC50 in experiment [1] was found to be 0.3 µM; in experiment [2], 0.4 µM.
As for `COc1ccc(N2CCN(c3ccc(S(=O)(=O)N[C@@H](Cc4ccccc4)C(=O)O)cc3)CC2)cc1` [Example 18, (S)-2-{4-[-4-(4-Methoxy-phenyl)-piperazin-1-yl]-benzenesulfonylamino}-3-phenyl-propionic acid], the IC50 in experiment [2] amounted to 0.033 µM.
As to `COc1cccc(N2CCN(c3ccc(S(=O)(=O)N[C@@H](Cc4ccccc4)C(=O)O)cc3)CC2)c1` [Example 16, (S)-2-{4-[-4-(3-Methoxy-phenyl)-piperazin-1-yl]-benzenesulfonylamino}-3-phenyl-propionic acid], the IC50 worked out at 0.062 µM in experiment [1] and 0.33 µM in experiment [2].
For `O=C(CNS(=O)(=O)c1ccc(N2CCC(c3ccccc3)CC2)cc1)NO` [Example 2, N-Hydroxy-2-[4-(4-phenyl-piperidin-1-yl)-benzenesulfonylamino]-acetamide], the half-maximal inhibitory concentration (IC50) in experiment [2] stood at 0.81 µM.
Take “TIMP-1: natural endogenous inhibitors of MMPs (TIMPS)”: the “formation of collagen fragments and proteoglycan fragments” value in the experiment on bovine nasal cartilage was “prevented the formation of collagen fragments, but not proteoglycan fragments”; with pig articular cartilage, “prevented the formation of collagen fragments, but not proteoglycan fragments”.
With `CC(C)C[C@@H](NS(=O)(=O)c1ccc(N2CCC(c3ccccc3)CC2)cc1)C(=O)O` [Example 4, (R)-4-Methyl-2-[4-(4-phenyl-piperidin-1-yl)-benzenesulfonylamino]-pentanoic acid], the results for the IC50 in experiment [1] and in experiment [2] were 0.036 µM and 0.93 µM, respectively.
The matching figures for `O=C(O)[C@H](Cc1ccccc1)NS(=O)(=O)c1ccc(N2CCN(c3cccc(O)c3)CC2)cc1` [Example 17, (S)-2-{4-[-4-(3-Hydroxy-phenyl)-piperazin-1-yl]-benzenesulfonylamino}-3-phenyl-propionic acid hydrobromide]: 0.077 µM and 0.18 µM.
`O=C(O)CNS(=O)(=O)c1ccc(N2CCN(c3ccccc3)CC2)cc1` [Example 10, [4-(4-Phenyl-piperazin-1-yl)-benzenesulfonylamino]-acetic acid]: the half-inhibitory concentration (IC50) in experiment [1] turned out to be 0.05 µM; in experiment [2], 0.5 µM.
As for `CNC(=O)[C@H](Cc1c[nH]c2ccccc12)NC(=O)[C@@H](CC(=O)NO)CC(C)C` [GM6001], in experiment [3], the “development or clinical expression of EAE” value is “suppressed the development or reversed the clinical expression of experimental allergic encephalomyelitis (EAE) in a dose dependent manner”.
Take `O=C(O)CCNS(=O)(=O)c1ccc(N2CCC(c3ccccc3)CC2)cc1` [Example 3, 3-[4-(4-Phenyl-piperidin-1-yl)-benzenesulfonylamino]-propionic acid]: the concentration for half-maximal inhibition (IC50) in experiment [1] was determined as 1.24 µM; in experiment [2], 4.8 µM.
For `O=C(O)[C@H](Cc1ccc(O)cc1)NS(=O)(=O)c1ccc(N2CCC(c3ccccc3)CC2)cc1` [Example 14, (S)-3-(4-Hydroxy-phenyl)-2-[4-(4-phenyl-piperidin-1-yl)-benzenesulfonylamino]-propionic acid], in that order: 0.015 µM and 0.13 µM.
As to `CC(C)CN(CC(=O)O)S(=O)(=O)c1ccc(N2CCC(c3ccccc3)CC2)cc1` [Example 11, {Isobutyl-[4-(4-phenyl-piperidin-1-yl)-benzenesulfonyl]amino}-acetic acid], the IC50 in experiment [1] worked out at 0.17 µM; in experiment [2], 3.3 µM.
The matching figures for `CC(C)C[C@H](NS(=O)(=O)c1ccc(N2CCC(c3ccccc3)CC2)cc1)C(=O)O` [Example 5, (S)-4-Methyl-2-[4-(4-phenyl-piperidin-1-yl)-benzenesulfonylamino]-pentanoic acid]: 0.011 µM and 0.084 µM.
Turning to `O=C(O)[C@@H](Cc1ccccc1)NS(=O)(=O)c1ccc(N2CCC(c3ccccc3)CC2)cc1` [Example 7, (R)-3-Phenyl-2-[4-(4-phenyl-piperidin-1-yl)-benzenesulfonylamino]-propionic acid], the values for the half-inhibitory concentration (IC50) in experiment [1] and in experiment [2] were 0.012 µM and 0.12 µM, respectively.
Consider `O=C(O)[C@H](Cc1ccccc1)NS(=O)(=O)c1ccc(N2CCC(c3ccccc3)CC2)cc1` [Example 6, (S)-3-Phenyl-2-[4-(4-phenyl-piperidin-1-yl)-benzenesulfonylamino]-propionic acid], for which the 50% inhibitory concentration (IC50) in experiment [2] was 0.22 µM.
